Where “and” joins values, the source holds several entries; their conditions need not be identical. Equal entries are not always repeated.
How the values were obtained:
[1] = test system: SK-HEP-1 cells; test: Protection of endothelial cells from homocysteine-induced cell death (MTS assay); format: cell-based, human; conditions: for Absorbance at 490 nm: single replicates Y1-Y6
[2] = test system: SK-HEP-1 cells; test: NACCbl protection from homocysteine with inhibition of Hsp32/Hsp70 by Sn(IX) protoporphyrin, quercitin or siRNA (MTS assay)
[3] = test system: SK-HEP-1 cells; test: Protection from homocysteine-induced apoptosis, Caspase-3 activity (apoptosis assay); format: cell-based, human; conditions: 30 μM two hours, then 30 μM homocysteine two hours
Description: Caspase 3 is activated when cells undergo apoptosis. Caspase-3 assay is a standard for apoptosis assay. Homocysteine is a known inducer of apoptosis. Cells were cultured in 96-well plates for 24 hours and then treated with reagents under test conditions. Cytotoxic agents, H2O2 and etoposide were added to negative control wells. The assay was performed according to the manufacturer's protocol, as follows: Cells were re-suspended in 100 μl of clear media and 50 μl of Caspase-3 substrate solution was immediately added to each test well. […] Cell viability was determined by MTS® assay. […] Cell viability was determined by MTS® assay.

[4] = test system: Jurkat (T-cells); test: Survival of Jurkat cells at variable concentration of Hcy; format: cell-based; conditions: NACCbl 30 μM, NAC 75 μM, CNCbl 15 μM, folate 30 μM
Description: Additional cell studies were conducted using Jurkat (T-cells) and U937 (monocyte) cell lines. These experiments confirmed that other cell types are killed by homocysteine, although these cell lines are not as sensitive as the SK-HEP-1 cell line discussed in the experiments above and are thus more resistant to homocysteine. Cells were exposed to NACCbl 30 μM, NAC 75 μM, CNCbl 15 μM, and folate 30 μM. […] In these Figures, the monocytes are N=6 and concentrations are as follows: NACCbl 30 μM, NAC 75 μM, CNCbl 15 μM, Folate 30 μM

[5] = Conc. Hcy 200.000, NACCbl 30 μM, NAC 75 μM, n = 6

CC(=O)NC(C[S-])C(=O)O.CC1=C2N=C(C=C3N=C(C(C)=C4[N-]C(C(CC(N)=O)C4(C)CCC(=O)NCC(C)OP(=O)([O-])OC4C(CO)OC(n5cnc6cc(C)c(C)cc65)C4O)C4(C)N=C1C(CCC(N)=O)C4(C)CC(N)=O)C(CCC(N)=O)C3(C)C)C(CCC(N)=O)C2(C)CC(N)=O.[Co+3] [NACCbl, N-acetyl-L-cysteinylcobalamin]
Normalized Data Log 10, Mean ([1]; Conc. Hcy 100.000, NACCbl 30 μM, NAC 75 μM, n = 6): 57.135 | Normalized Data Log 2, Mean [1, 5]: 40.781 | Normalized Data Log 10, Mean [1, 5]: 45.526 | Absorbance at 490 nm ([1]; Conc. of Hcy 0.000, NACCbl 30 μM, NAC 75 μM): 2.885 and 2.698 and 2.821 and 2.771 and 2.691 and 2.700 | Absorbance at 490 nm ([1]; Conc. of Hcy 1.780, NACCbl 30 μM, NAC 75 μM): 2.647 and 2.551 and 2.789 and 2.890 and 2.549 and 2.611 | Absorbance at 490 nm ([1]; Conc. of Hcy 3.125, NACCbl 30 μM): 2.453 and 2.338 and 2.360 and 2.317 and 2.418 and 2.535 | Absorbance at 490 nm ([1]; Conc. of Hcy 6.250, NACCbl 30 μM, NAC 75 μM): 2.410 and 2.400 and 2.322 and 2.201 and 2.115 and 2.187 | Absorbance at 490 nm ([1]; Conc. of Hcy 12.500, NACCbl 30 μM, NAC 75 μM): 2.210 and 2.110 and 2.045 and 2.065 and 2.101 and 2.324 | Absorbance at 490 nm ([1]; Conc. of Hcy 25.000, NACCbl 30 μM, NAC 75 μM): 2.100 and 2.190 and 1.879 and 1.937 and 1.779 and 1.837 | Absorbance at 490 nm ([1]; Conc. of Hcy 50.000, NACCbl 30 μM, NAC 75 μM): 1.678 and 1.832 and 1.881 and 1.730 and 1.740 and 1.855 | Absorbance at 490 nm ([1]; Conc. of Hcy 100.000, NACCbl 30 μM, NAC 75 μM): 1.678 and 1.592 and 1.694 and 1.773 and 1.732 and 1.639 | Absorbance at 490 nm ([1]; Conc. of Hcy 200.000, NACCbl 30 μM, NAC 75 μM): 1.378 and 1.167 and 1.330 and 1.456 and 1.491 and 1.537 | Protection against homocysteine-induced damage compared with free thiols ([1]; Hcy 30 μM, NAC 45 μM, GSH 100 μM, NACCbl 12.5 μM, GSCbl 15 μM): superior to the free thiols | Prevention of cell death compared with NAC and cyanocobalamin + NAC ([1]; NACCbl 30 μM, variable Hcy): superior to either NAC (75 μM) alone or in combination with CNCbl | Absorbance at 490 nm, Mean ([1]; SK-HEP-1, NACCbl 30 μM, NAC 75 μM, Hcy conc. 200.000, n = 6, label Hcy = Hcy alone): 1.393 | Mean (FIG. 14, protection of SK-HEP-1 cells from Hcy) ([1]; [Hcy] 30 μM, [NAC] = 45 μM, [NACCbl] = 12.5 μM, [Folate] = 25 μM where named in the label, label Hcy/HCy = Hcy alone): 1.696 | Mean (FIG. 14a, protection of SK-HEP-1 cells from Hcy in the presence of folate) ([1]; [Hcy] 30 μM, folate 25 μM present, [GSCbl] = 15 μM, [NACCbl] = 12.5 μM, [CNCbl] = 15 μM, [MeCbl] = 12.5 μM, [HOCbl] = 17.5 μM, [NAC] = 45 μM, [GSH] = 100 μM): 2.661 | Absorbance at 490 nm, Mean ([1]; as E80, Hcy conc. 0.000): 2.761 | Absorbance at 490 nm, Mean ([1]; as E80, Hcy conc. 1.780): 2.673 | Absorbance at 490 nm, Mean ([1]; as E80, Hcy conc. 3.125): 2.404 | Absorbance at 490 nm, Mean ([1]; as E80, Hcy conc. 6.250): 2.273 | Absorbance at 490 nm, Mean ([1]; as E80, Hcy conc. 12.500): 2.142 | Absorbance at 490 nm, Mean ([1]; as E80, Hcy conc. 25.000): 1.954 | Absorbance at 490 nm, Mean ([1]; as E80, Hcy conc. 50.000): 1.786 | Absorbance at 490 nm, Mean ([1]; as E80, Hcy conc. 100.000): 1.685 | Survival ([1]; compound 30 μM, 50 μM homocysteine): ~60% | Protection compared with GSCbl ([1]; concentrations below 12.5 μM, 30 μM homocysteine, p<0.001): significantly greater than that provided by GSCbl | Protection from homocysteine-induced cell death ([1]; pre-incubation 30 μM two hours, variable homocysteine two hours): protected cells from homocysteine-induced cell death | Survival ([1]; ≧12.5 μM NACCbl, then 30 μM homocysteine 24 hours): 80% | Cell viability by MTS assay (FIG. 11), replicates 1-6 ([2]; SK-HEP-1, NACCbl 30 μM two hours with or without Sn(IX)PP/quercetin, then Hcy conc. 200 two hours, label Hcy = Hcy alone): 1.378 and 1.167 and 1.33 and 1.456 and 1.491 and 1.537 | Reduction of the protection by NACCbl on inhibition of Hsp32 ([2]; Sn(IX) protoporphyrin or siRNA, p<0.001): 10-20% | Cell viability by MTS assay (FIG. 11), replicates 1-6 ([2]; as E45, Hcy conc. 0): 2.885 and 2.698 and 2.821 and 2.771 and 2.691 and 2.7 | Cell viability by MTS assay (FIG. 11), replicates 1-6 ([2]; as E45, Hcy conc. 1.78): 2.647 and 2.551 and 2.789 and 2.89 and 2.549 and 2.611 | Cell viability by MTS assay (FIG. 11), replicates 1-6 ([2]; as E45, Hcy conc. 3.125): 2.453 and 2.338 and 2.36 and 2.317 and 2.418 and 2.535 | Cell viability by MTS assay (FIG. 11), replicates 1-6 ([2]; as E45, Hcy conc. 6.25): 2.41 and 2.4 and 2.322 and 2.201 and 2.115 and 2.187 | Cell viability by MTS assay (FIG. 11), replicates 1-6 ([2]; as E45, Hcy conc. 12.5): 2.21 and 2.11 and 2.045 and 2.065 and 2.101 and 2.324 | Cell viability by MTS assay (FIG. 11), replicates 1-6 ([2]; as E45, Hcy conc. 25): 2.1 and 2.19 and 1.879 and 1.937 and 1.779 and 1.837 | Cell viability by MTS assay (FIG. 11), replicates 1-6 ([2]; as E45, Hcy conc. 50): 1.678 and 1.832 and 1.881 and 1.73 and 1.74 and 1.855 | Cell viability by MTS assay (FIG. 11), replicates 1-6 ([2]; as E45, Hcy conc. 100): 1.678 and 1.592 and 1.694 and 1.773 and 1.732 and 1.639 | Protection by NACCbl on inhibition of both Hsp32 and Hsp70 together ([2]; chemically and directly): totally removed protection | Reduction of the protection by NACCbl on inhibition of Hsp70 ([2]; quercitin or siRNA, p<0.001): 20-40% | Protection against apoptosis induced by homocysteine [3]: total protection | Protection of Jurkat cells from death [4]: more effective at protecting these cells from death than NAC, CN Cbl or folate
